The values below come from US8765779B2, “Tricyclic derivatives and their pharmaceutical use and compositions” (Cephalon, Inc., priority 2009, dated 2014).

The assay concerns the target T1, human 5-HT6 receptor (Homo sapiens, UniProt P50406).
T1 construct: host or cells: CHO-K1 cells, stably transfected; membranes prepared in house
Kind of assay: Human 5-HT6 Receptor Binding Assay ([3H]LSD displacement, scintillation beads). Conditions: membranes of CHO-K1 cells with recombinant human 5-HT6, 4 nM [3H]LSD; Table 1, class symbols; read-out: h5-HT6 (Ki).

SMILES strings stand for the structures. Structures can show the parent of a compound that is named as a salt.

T1 sequence (P50406 whole entry): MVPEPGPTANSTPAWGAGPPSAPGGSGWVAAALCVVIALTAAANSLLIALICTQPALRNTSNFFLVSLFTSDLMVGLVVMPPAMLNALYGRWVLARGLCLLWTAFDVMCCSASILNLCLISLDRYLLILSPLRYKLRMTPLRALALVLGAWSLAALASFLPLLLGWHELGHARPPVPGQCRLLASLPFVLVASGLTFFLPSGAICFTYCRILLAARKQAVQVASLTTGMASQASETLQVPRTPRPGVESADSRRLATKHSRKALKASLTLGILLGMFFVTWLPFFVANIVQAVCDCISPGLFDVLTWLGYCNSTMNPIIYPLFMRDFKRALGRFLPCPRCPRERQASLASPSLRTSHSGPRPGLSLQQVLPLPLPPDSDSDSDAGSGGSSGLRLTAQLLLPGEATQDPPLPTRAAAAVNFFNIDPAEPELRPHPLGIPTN

As to `Cc1ccc(F)cc1S(=O)(=O)c1ccc2oc3c(c2c1)CCNC3` [Example 254], the Ki was less than 500 nM.

Consider `CC1(C)NCCc2c1oc1cc(S(=O)(=O)c3cccc(C(F)(F)F)c3)ccc21` [Example 289], for which the Ki is less than 500 nM.

With `O=S(=O)(c1cc(F)cc(OCC2CCOCC2)c1)c1ccc2c(c1)OC1CNCCC21` (centres unmarked) [Example 591], the Ki is less than 500 nM.

For the molecule `Ic1ccc2c3c([nH]c2c1)C1(CCCOC1)NCC3` (stereo not drawn) [Example 547, 7-Iodo-2,3,4,5′,6′,9-hexahydro-4′H-spiro[beta-carboline-1,3′-pyran]trifluoroacetate], the Ki was less than 500 nM.

Take `CC(=O)N(C)CCC1NCCc2c1oc1cc(S(=O)(=O)c3cccc(Cl)c3)ccc21` (racemic) [Example 542, N-(2-{7-[(3-chlorophenyl)sulfonyl]-1,2,3,4-tetrahydro[1]benzofuro[2,3-c]pyridin-1-yl}ethyl)-N-methylacetamide]: the inhibition constant (Ki) is less than 500 nM.

With `O=S(=O)(c1cc(F)cc(Cl)c1)c1ccc2c3c(oc2c1)CNCC3` [Example 207], the Ki is less than 500 nM.

For `COc1ccc(S(=O)(=O)c2ccc3c(c2)OC2CNCCC32)cc1` (centres unmarked) [Example 323], the inhibition constant Ki is greater than 1000 nM.

For the molecule `O=S(=O)(c1ccc2c(c1)OC1CNCCC21)c1ccc(Cl)c(C(F)(F)F)c1` (centres unmarked) [Example 148], the Ki is less than 500 nM.

With `Cc1c(S(=O)(=O)Oc2ccc3c(c2)OC2CNCCC32)sc2ccc(Cl)cc12` (centres unmarked) [Example 797], the Ki is less than 500 nM.

Take `Cc1cc(COc2cccc(S(=O)(=O)c3ccc4c(c3)OC3CNCCC43)c2)no1` (centres unmarked) [Example 565]: the inhibition constant Ki was less than 500 nM.

Consider `O=S(=O)(Oc1ccc2c(c1)OC1CNCCC21)c1ccc(C(F)(F)F)cc1` (centres unmarked) [Example 673], for which the Ki is less than 500 nM.

`CC(C)Oc1cc(F)cc(S(=O)(=O)c2ccc3c(c2)OC2CNCCC32)c1` (centres unmarked) [Example 417]: the Ki was less than 500 nM.

On to `O=S(=O)(c1ccc(Cl)cc1)c1ccc2oc3c(c2c1)CCNC3` [Example 250], for which the Ki is less than 500 nM.

Consider `Cn1cnc(COc2cccc(S(=O)(=O)c3ccc4c(c3)OC3CNCCC43)c2)n1` (centres unmarked) [Example 560], for which the Ki was greater than 1000 nM.

`O=S(=O)(c1cccc(F)c1)c1ccc2c3c([nH]c2c1)C1(CCCOC1)NCC3` (centres unmarked) [Example 317]: the Ki is less than 500 nM.

As for `[O-][S+](c1ccc2oc3c(c2c1)CCNC3)c1cc(F)cc(F)c1F` (centres unmarked) [Example 443], the Ki was greater than 1000 nM.

Turning to `O=S(=O)(c1ccc2c(c1)OC1CNCCC21)c1cc(F)ccc1F` (centres unmarked) [Example 143], the Ki was less than 500 nM.

Take `Cc1cccc(S(=O)(=O)c2ccc3c(c2)OC2CNCCC32)c1` (centres unmarked) [Example 141]: the Ki was less than 500 nM.

Take `CC(C)S(=O)(=O)c1ccc2oc3c(c2c1)CCNC3` [Example 281]: the inhibition constant (Ki) is greater than 1000 nM.

Take `CC(=O)Nc1ccc(S(=O)(=O)c2ccc3oc4c(c3c2)CCNC4)cc1` [Example 272]: the Ki is 500 to 1000 nM.

In the case of `O=S(=O)(Oc1ccc2c(c1)C1CCNCC1O2)c1cc2ccccc2o1` (centres unmarked) [Example 714], the Ki is less than 500 nM.

For `O=S(=O)(Oc1ccc2c(c1)OC1CNCCC21)c1cc2ccccc2o1` (centres unmarked) [Example 655], the Ki is less than 500 nM.

With `O=S(=O)(Nc1cccc(Cl)c1)c1ccc2c(c1)C1CCNCC1O2` (centres unmarked) [Example 853], the Ki lay in the range of 500 to 1000 nM.

On to `CC12CCNCC1Oc1ccc(OS(=O)(=O)c3ccc(Oc4ccccc4)nc3)cc12` (centres unmarked) [Example 782], for which the inhibition constant (Ki) was greater than 1000 nM.

As to `CC1(C)NCCc2c1oc1ccc(S(=O)(=O)c3cccc(F)c3)cc21` [Example 42, 6-[(3-fluorophenyl)sulfonyl]-1,1-dimethyl-1,2,3,4-tetrahydro[1]benzofuro[2,3-c]pyridine], the inhibition constant Ki was 500 to 1000 nM.

Take `CC12CCNCC1Oc1ccc(OS(=O)(=O)c3ccc(-c4ccon4)s3)cc12` (centres unmarked) [Example 781]: the Ki was greater than 1000 nM.

As to `CC12CCNCC1Oc1ccc(OS(=O)(=O)Cc3ccc(F)cc3F)cc12` (centres unmarked) [Example 787], the Ki was greater than 1000 nM.

Consider `CCOCC1NCCc2c1oc1cc(S(=O)(=O)c3cccc(F)c3)ccc21` (racemic) [Example 33, 1-(ethoxymethyl)-7-[(3-fluorophenyl)sulfonyl]-1,2,3,4-tetrahydro[1]benzofuro[2,3-c]pyridine], for which the Ki is less than 500 nM.

For `COCC1NCCc2c1oc1cc(S(=O)(=O)c3cccc(Cl)c3)ccc21` (centres unmarked) [Example 502], the Ki was less than 500 nM.

For `O=S(=O)(c1ccccc1)c1ccc2c(c1)C1CCNCC1O2` (centres unmarked) [Example 337, 6-(phenylsulfonyl)-1,2,3,4,4a,9a-hexahydro[1]benzofuro[2,3-c]pyridine], the Ki was greater than 1000 nM.

On to `[O-][S+](c1ccc2c3c(oc2c1)CNCC3)c1ccccc1Cl` (centres unmarked) [Example 229], for which the inhibition constant Ki was less than 500 nM.

For `O=S(=O)(c1cccc(OC2CCOCC2)c1)c1ccc2c(c1)OC1CNCCC21` (centres unmarked) [Example 571], the Ki was less than 500 nM.

For the molecule `O=S(=O)(Nc1ccc2c(c1)C1CCNCC1O2)c1ccc(Cl)c(Cl)c1` (centres unmarked) [Example 827], the inhibition constant Ki is less than 500 nM.

As to `CC(=O)N1CCC2c3ccc(S(=O)(=O)c4ccccc4)cc3OC2C1` (centres unmarked) [Example 613, 1-[7-(Phenylsulfonyl)-3,4,4a,9a-tetrahydro[1]benzofuro[2,3-c]pyridin-2(1H)-yl]ethanone], the Ki is greater than 1000 nM.

Turning to `O=S(=O)(c1ccc(F)c(Cl)c1)c1ccc2oc3c(c2c1)CCNC3` [Example 258], the Ki was less than 500 nM.

Turning to `O=S(=O)(Oc1ccc2c(c1)OC1CN(CCc3ccccc3)CCC21)c1ccc(Cl)cc1` (centres unmarked) [Example 813], the Ki was greater than 1000 nM.

In the case of `O=S(=O)(c1ccccc1)c1ccc2c3c([nH]c2c1)C1(CCOCC1)NCC3` [Example 545, 7-(Phenylsulfonyl)-2,2′,3,3′,4,5′,6′,9-octahydrospiro[beta-carboline-1,4′-pyran]trifluoroacetate], the Ki was less than 500 nM.

Regarding `O=S(=O)(c1ccc2c(c1)OC1CNCCC21)c1cccnc1C(F)(F)F` (centres unmarked) [Example 423], the Ki is less than 500 nM.

Turning to `O=S(=O)(Oc1ccc2c(c1)OC1CN(C3CCC3)CCC21)c1ccc(Cl)cc1` (centres unmarked) [Example 800], the Ki is greater than 1000 nM.

Turning to `O=S(=O)(Oc1ccc2c(c1)C1CCNCC1O2)c1cccc(Cl)c1` (centres unmarked) [Example 710], the inhibition constant Ki is less than 500 nM.

As for `Cc1noc(C)c1S(=O)(=O)Oc1ccc2c(c1)C1CCNCC1O2` (centres unmarked) [Example 703], the Ki was greater than 1000 nM.

Take `O=[N+]([O-])c1ccc(S(=O)(=O)c2ccc3oc4c(c3c2)CCNC4)cc1` [Example 253]: the Ki was greater than 1000 nM.

Regarding `CN(C)C(=O)c1cccc(S(=O)(=O)c2ccc3c(c2)OC2CNCCC32C)c1` (centres unmarked) [Example 425], the Ki is greater than 1000 nM.

`O=S(=O)(c1ccccc1)c1ccc2c(c1)OC1CN(C3CCC3)CCC21` (centres unmarked) [Example 606, 2-Cyclobutyl-7-(phenylsulfonyl)-1,2,3,4,4a,9a-hexahydro[1]benzofuro[2,3-c]pyridine trifluoroacetic acid salt]: the Ki was less than 500 nM.

Turning to `O=S(=O)(c1ccc2oc3c(c2c1)CCNC3)c1cccc(Cl)c1Cl` [Example 260, 6-[(2,3-dichlorophenyl)sulfonyl]-1,2,3,4-tetrahydro[1]benzofuro[2,3-c]pyridine], the Ki was less than 500 nM.

Take `Cc1c(S(=O)(=O)Oc2ccc3c(c2)OC2CNCCC32)sc2ccc(Cl)cc12` (centres unmarked) [Example 796]: the Ki is less than 500 nM.

For `O=S(=O)(Oc1ccc2c(c1)C1CCNCC1O2)c1cccc2ccccc12` (centres unmarked) [Example 720], the Ki was less than 500 nM.
